Active and inactive are the calls of the source.
Legend:
Streptococcus = assay: GAS UMAA2166 growth inhibition – luminescence, BacTiterGlo, counter-screen for streptokinase expression inhibitor project, dose response (AID 1915); type: functional, organism-based;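 also: potency for reduction of bacterial viability or growth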
[1] = tested on: Streptococcus sp. 'group A'; assay: Streptococcus pyogenes SK(-)GAS viability under kanamycin – luminescence, BacTiterGlo, confirmation, counter-screen for streptokinase expression inhibitor project, dose response (AID 1900); type: functional, organism-based
[2] = target: Envelope glycoprotein gp160 (Human immunodeficiency virus 1, UniProt Q6QLK5); assay: cell-free HIV fusion peptide-binding blockers – biochemical, uHTS, fluorescence dequenching, […] (AID 1986)
[3] = Intein inhibitors as potential Tuberculosis drugs, a cytotoxicity screen. [Related pubchem assays (depositor defined):AID2221, AID2223, AID434968, AID435010, AID449749, AID449750, AID489010]; type: functional
Fatty acid synthase [4] = target: T1, Fatty acid synthase (Homo sapiens, UniProt P49327); assay: inhibition of human FAS-TE enzyme activity – biochemical, kinetic fluorescence intensity, dose response (AID 624326); type: functional;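 also: rate of fluorescence rise from hydrolysis of a fluorogenic O-methyl fluorescein ester substrate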
[5] = CCR5-tropic HIV-1 fusion blockers – cell-based, CCR5-tropic Env, dose response (AID 2279); type: functional
[6] = target: T2, Replicative DNA helicase DnaB (Mycobacterium tuberculosis, UniProt P9WMR3); assay: DnaB intein splicing inhibitors, dose response, biochemical, cell-free fluorescence (AID 449749); type: functional
T2 sequence (P9WMR3 whole entry): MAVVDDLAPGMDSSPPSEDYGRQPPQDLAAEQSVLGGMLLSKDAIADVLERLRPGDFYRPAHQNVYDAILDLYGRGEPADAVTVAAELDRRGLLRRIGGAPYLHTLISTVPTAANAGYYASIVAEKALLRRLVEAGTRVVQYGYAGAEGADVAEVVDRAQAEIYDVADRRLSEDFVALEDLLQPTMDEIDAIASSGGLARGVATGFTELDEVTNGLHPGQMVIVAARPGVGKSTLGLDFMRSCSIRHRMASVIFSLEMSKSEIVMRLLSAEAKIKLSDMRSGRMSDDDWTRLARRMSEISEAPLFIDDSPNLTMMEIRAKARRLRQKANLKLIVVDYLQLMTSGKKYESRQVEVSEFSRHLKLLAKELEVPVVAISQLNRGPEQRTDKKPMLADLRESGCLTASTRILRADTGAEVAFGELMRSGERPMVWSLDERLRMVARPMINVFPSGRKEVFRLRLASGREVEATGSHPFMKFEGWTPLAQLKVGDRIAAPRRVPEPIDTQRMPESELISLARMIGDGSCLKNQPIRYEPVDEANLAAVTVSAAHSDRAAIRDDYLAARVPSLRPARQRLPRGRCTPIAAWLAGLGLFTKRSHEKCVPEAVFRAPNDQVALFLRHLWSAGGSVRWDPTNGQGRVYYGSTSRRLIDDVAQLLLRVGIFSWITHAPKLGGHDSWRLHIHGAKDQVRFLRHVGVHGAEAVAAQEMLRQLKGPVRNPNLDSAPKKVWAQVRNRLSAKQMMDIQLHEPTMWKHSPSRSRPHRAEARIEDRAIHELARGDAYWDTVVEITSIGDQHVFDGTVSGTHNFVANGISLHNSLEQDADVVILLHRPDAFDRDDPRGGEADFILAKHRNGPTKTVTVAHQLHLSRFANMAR

[7] = target: 72 kDa type IV collagenase (Homo sapiens, UniProt P08253); assay: Dose Response validation of uHTS RPN11 inhibitor hits using a MMP-2 Fluorescence assay.; type: functional
Prothrombin = Prothrombin (Bos taurus, UniProt P00735); assay: thrombin protease inhibitors – biochemical, fluorescence polarization, uHTS hits, dose response (AID 602369); type: functional
Fatty acid synthase [8] = target: T1, Fatty acid synthase; assay: inhibition of human FAS-TE enzyme activity – biochemical, endpoint fluorescence intensity, uHTS hits, dose response (AID 624327); type: functional;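 also: fluorescence from hydrolysis of an O-methyl fluorescein acyl ester substrate by the enzyme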
[9] = target: 26S proteasome non-ATPase regulatory subunit 14 (Homo sapiens, UniProt O00487); assay: inhibition of proteasome subunit RPN11 – biochemical, fluorescence polarization, uHTS hits, confirmation (AID 602368); type: functional
Protein RecA = target: T3, Protein RecA (Mycobacterium tuberculosis, UniProt P9WHJ3); assay: Fluorescence Cell-Free Homogeneous Dose Retest to Identify Inhibitors of RecA-Intein Splicing Activity. [Related pubchem assays (depositor defined):AID2097, AID2223, AID489010, AID492950]; type: functional
T3 sequence (P9WHJ3 whole entry): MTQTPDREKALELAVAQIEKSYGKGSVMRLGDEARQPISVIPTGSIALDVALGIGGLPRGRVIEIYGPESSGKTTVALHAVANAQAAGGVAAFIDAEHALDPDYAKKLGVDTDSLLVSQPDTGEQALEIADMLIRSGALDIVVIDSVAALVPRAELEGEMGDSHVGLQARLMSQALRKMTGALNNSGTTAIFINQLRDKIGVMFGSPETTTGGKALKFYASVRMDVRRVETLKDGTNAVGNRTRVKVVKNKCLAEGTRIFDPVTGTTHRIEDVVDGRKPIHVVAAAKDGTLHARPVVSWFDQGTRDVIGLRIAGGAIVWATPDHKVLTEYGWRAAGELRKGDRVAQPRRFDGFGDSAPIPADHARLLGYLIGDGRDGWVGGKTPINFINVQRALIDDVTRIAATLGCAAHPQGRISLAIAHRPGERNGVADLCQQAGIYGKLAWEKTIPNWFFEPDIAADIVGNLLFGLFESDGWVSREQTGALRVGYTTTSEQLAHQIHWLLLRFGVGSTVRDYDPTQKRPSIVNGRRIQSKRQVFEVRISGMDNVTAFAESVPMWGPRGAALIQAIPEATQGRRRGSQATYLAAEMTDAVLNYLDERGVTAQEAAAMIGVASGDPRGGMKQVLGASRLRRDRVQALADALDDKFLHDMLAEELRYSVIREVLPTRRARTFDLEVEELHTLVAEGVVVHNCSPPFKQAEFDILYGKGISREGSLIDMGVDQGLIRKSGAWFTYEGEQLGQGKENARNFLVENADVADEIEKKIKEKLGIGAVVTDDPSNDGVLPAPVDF

[10] = Luminescence Cell-Based Dose Response to Identify Activators of 5'UTR Stem-Loop Driven Prion Protein mRNA Translation in H4-C Neuroglioblastoma Cells. [Related pubchem assays: 1829 (Project Summary), 1814 (Primary HTS)]; type: functional
[11] = Luminescence Cell-Based Dose Response HTS to Identify Activators of Luciferase Translation or Activity in H4 […] Cells. [Related pubchem assays: 1829 (Project Summary), 1814 (Primary HTS)]; type: functional
[12] = Luminescence Cell-Based Dose Confirmation to Identify Activators of 5'UTR Stem-Loop Driven Alpha-Synuclein mRNA Translation in H4 Neuroglioblastoma Cells. [Related pubchem assays: 1829 (Project Summary), 1814 (Primary HTS)]; type: functional
[13] = Luminescence Cell-Based Dose Response to Identify Activators of Luciferase Translation or Activity in H4-C Neuroglioblastoma Cells. [Related pubchem assays: 1829 (Project Summary), 1814 (Primary HTS)]; type: functional
[14] = target: T4, Zinc finger protein mex-5 (Caenorhabditis elegans, UniProt Q9XUB2); assay: potency of MEX-5 RNA-binding blockers – biochemical, C. elegans, fluorescence polarization, dose response (AID 1960)
T4 sequence (Q9XUB2 whole entry): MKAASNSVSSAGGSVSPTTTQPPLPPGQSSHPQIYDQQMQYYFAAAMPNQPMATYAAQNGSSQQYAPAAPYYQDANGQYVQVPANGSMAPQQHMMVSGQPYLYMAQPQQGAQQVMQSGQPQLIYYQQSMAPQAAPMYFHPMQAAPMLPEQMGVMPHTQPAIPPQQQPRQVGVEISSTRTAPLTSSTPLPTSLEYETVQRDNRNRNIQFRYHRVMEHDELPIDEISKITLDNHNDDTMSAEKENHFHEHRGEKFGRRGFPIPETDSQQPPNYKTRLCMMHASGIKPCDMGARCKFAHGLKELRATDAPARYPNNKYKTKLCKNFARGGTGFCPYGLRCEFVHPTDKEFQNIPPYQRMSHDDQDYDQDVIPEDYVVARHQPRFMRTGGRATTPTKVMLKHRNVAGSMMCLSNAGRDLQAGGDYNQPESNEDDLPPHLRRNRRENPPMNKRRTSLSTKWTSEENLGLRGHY

[15] = target: T5, RNA-binding protein pos-1 (Caenorhabditis elegans, UniProt G5EF15); assay: disruptors of C. elegans POS-1 RNA interaction – biochemical, fluorescence polarization, dose response (AID 1964);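 also: purified POS-1 fused to maltose binding protein made in E. coli; potency of compounds blocking POS-1 binding to fluorescent RNA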
T5 sequence (G5EF15 whole entry): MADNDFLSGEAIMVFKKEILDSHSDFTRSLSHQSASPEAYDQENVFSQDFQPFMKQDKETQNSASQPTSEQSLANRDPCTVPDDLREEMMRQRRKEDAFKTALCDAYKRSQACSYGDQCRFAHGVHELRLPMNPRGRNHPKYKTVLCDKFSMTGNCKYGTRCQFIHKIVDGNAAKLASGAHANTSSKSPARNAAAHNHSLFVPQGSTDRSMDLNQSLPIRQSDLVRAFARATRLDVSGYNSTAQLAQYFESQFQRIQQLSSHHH

Troponin, cardiac muscle = Troponin, cardiac muscle (Homo sapiens, UniProt P19429+P45379+P63316); assay: Fluorescence-based biochemical high throughput dose response assay for activators of the calcium sensitivity of cardiac Regulated Thin Filaments (RTF). [Related pubchem assays (depositor defined):AID493008, AID493018, AID504382, AID504383]; type: protein-complex assay
H4 = assay: Luminescence Cell-Based Dose Response HTS to Identify Activators of 5'UTR Stem-Loop Driven Prion Protein mRNA Translation in H4 Neuroglioblastoma Cells. [Related pubchem assays: 1829 (Project Summary), 1814 (Primary HTS)]; type: functional; details: Homo sapiens
[16] = target: T6, Ubiquitin-conjugating enzyme E2 N (Homo sapiens, UniProt P61088); type: functional
T6 sequence (P61088 whole entry): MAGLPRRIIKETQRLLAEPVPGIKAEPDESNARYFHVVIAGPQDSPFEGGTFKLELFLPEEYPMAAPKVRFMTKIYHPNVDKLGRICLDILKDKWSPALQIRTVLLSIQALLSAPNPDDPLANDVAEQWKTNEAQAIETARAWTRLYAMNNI

[17] = target: T6, Ubiquitin-conjugating enzyme E2 N; type: functional; remark: listed apart in the source
Bcl-2-related protein A1 = target: T7, Bcl-2-related protein A1 (Mus musculus, UniProt Q07440); type: functional;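 also: confirmatory dose–response counterscreen on Bfl-1, used to check hits from a UBC13 polyubiquitin inhibitor campaign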
T7 sequence (Q07440 whole entry): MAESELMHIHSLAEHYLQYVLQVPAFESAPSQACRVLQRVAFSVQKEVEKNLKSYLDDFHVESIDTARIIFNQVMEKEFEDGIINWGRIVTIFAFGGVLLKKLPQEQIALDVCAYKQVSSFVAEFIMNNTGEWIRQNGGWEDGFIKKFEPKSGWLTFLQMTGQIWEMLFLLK

[18] = target: T8, Type-1 angiotensin II receptor (Homo sapiens, UniProt P30556); assay: agonist activity at AGTR1 – cell-based, uHTS hits, selectivity assay for APJ receptor agonist project, dose response (AID 488865); type: functional;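 also: beta-arrestin recruitment to AT1 measured by enzyme fragment complementation luminescence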
T8 sequence (P30556 whole entry): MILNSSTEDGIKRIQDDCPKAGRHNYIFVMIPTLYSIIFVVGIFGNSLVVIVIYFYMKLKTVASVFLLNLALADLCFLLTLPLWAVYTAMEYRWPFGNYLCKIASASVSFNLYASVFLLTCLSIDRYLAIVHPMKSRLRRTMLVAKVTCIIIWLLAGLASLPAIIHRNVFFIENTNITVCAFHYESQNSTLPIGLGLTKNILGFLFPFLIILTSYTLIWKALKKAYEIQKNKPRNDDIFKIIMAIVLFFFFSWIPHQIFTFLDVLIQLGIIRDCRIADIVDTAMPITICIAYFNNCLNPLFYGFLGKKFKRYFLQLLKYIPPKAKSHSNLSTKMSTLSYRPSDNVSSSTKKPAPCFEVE

Coagulation factor XII = target: T9, Coagulation factor XII (Homo sapiens, UniProt P00748); assay: Factor XIIa Dose Response Confirmation from Single Well HTS. [Related pubchem assays (depositor defined):AID701]; type: functional
T9 sequence (P00748 whole entry): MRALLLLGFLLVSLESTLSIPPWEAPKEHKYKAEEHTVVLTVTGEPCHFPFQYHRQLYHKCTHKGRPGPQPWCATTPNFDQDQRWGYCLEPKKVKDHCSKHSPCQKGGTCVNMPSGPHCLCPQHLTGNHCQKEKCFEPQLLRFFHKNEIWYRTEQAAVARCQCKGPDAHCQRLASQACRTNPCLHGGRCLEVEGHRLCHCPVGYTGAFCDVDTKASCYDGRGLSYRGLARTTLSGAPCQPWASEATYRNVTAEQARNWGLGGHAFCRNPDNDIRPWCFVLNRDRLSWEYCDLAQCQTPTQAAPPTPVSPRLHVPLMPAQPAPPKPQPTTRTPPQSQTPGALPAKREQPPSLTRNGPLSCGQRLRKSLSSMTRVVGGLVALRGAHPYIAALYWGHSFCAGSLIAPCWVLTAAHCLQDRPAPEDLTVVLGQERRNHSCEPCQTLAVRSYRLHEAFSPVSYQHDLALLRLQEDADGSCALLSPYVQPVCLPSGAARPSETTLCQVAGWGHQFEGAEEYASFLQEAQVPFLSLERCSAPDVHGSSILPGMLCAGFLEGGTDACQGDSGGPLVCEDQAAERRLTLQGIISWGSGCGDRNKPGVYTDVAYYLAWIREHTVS
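For CC50 in this document: cells exposed to compound for 72 hours before luminescence readout.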

## O=C1NC(=S)N(C2CCCCC2)C(=O)/C1=C/NNC(=O)c1ccccc1O
Streptococcus
  EC50: 2.18 µM (active)
[1]
  EC50: 0.725 µM (active)
[2]
  IC50: 17.7 µM (active)
[3]
  CC50: 31.2 µM (active)
Fatty acid synthase [4]
  IC50: 18.2 µM (active)
[5]
  IC50: 33.7 µM (active)
[6]
  AC50: 3.25 µM (active)
[7]
  IC50: > 100 µM (inactive)
Prothrombin
  IC50: 93.6 µM (active)
Fatty acid synthase [8]
  IC50: 31.1 µM (inactive)
[9]
  IC50: 36.7 µM (active)
Protein RecA
  EC50: 4.6 µM (active)

## CN1C(=O)/C(=C/c2ccc(N3CCCCCC3)o2)C(=O)NC1=S
[10]
  EC50: 0.325 µM (active)
[11]
  EC50: < 0.1 µM (active)
[12]
  EC50: 0.206 µM (active)
[13]
  EC50: 0.462 µM (active)
[14]
  EC50: > 300 µM (inconclusive)
[15]
  EC50: > 300 µM (not active)
Troponin, cardiac muscle
  EC50: 2.22 µM (active)
H4
  EC50: 39.5 µM (active)

## CCOc1ccc2nc(N(CCCN(C)C)C(=O)c3ccc(S(=O)(=O)N4CCc5ccccc5C4)cc3)sc2c1
[16]
  IC50: 6.95 µM (active)
[17]
  IC50: 5.52 µM (active)
Bcl-2-related protein A1
  IC50: > 20 µM (inactive)
[18]
  EC50: > 100 µM (inactive)

## O=C(c1ccc2c(c1)OCO2)N1CCN(c2ccc(F)cc2)CC1
Coagulation factor XII
  IC50: > 50 µM (inactive)

— ChEMBL document CHEMBL1201862, “PubChem BioAssay data set” (2004)
